Source: patent US12090146B2, “Substituted-pyridinyl compounds and uses thereof” (Bionomics Limited, priority 2018, dated 2024)

Molecular target: T1, hKv3.1 (Homo sapiens, UniProt P48547)
T1 construct: expressed in transfected cells
T1 sequence (P48547 1-511): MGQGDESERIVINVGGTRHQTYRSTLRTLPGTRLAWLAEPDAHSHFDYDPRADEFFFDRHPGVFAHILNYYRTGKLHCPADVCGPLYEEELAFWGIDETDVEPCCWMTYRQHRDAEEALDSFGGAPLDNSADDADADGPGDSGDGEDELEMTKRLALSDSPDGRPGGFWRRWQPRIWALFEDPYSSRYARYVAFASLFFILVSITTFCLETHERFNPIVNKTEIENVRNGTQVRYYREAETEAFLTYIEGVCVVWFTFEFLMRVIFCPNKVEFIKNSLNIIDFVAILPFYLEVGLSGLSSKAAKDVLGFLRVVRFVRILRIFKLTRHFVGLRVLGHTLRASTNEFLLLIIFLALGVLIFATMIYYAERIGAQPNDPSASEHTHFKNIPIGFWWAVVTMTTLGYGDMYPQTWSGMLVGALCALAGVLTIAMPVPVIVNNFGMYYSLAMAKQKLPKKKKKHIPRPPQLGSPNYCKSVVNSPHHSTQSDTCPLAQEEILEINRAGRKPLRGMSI
Test: Automated patch clamp (Patchliner) whole-cell electrophysiology, Kv3.1
Format: cell-based
Conditions: 10 μM compound, CHO-K1 cells stably expressing hKv3.1; for Kv3.1 Activity at 10 μM Potentiation (%): % potentiation of peak current at −10 mV voltage step vs vehicle; for Kv3.1 Activity at 10 μM Voltage Shift (mV): voltage shift of the IV curve at V1/2
Experimental: hKv3.1, hKv3.2, hKv3.3, and hKv3.4 were stably expressed in CHO-K1 (Chinese hamster ovary) cells and kept under constant antibiotic selection. For in vitro assays, cells were maintained in appropriate growth medium at 37° C. and 5% CO2 in a humidified incubator.
hKv3.X expressing cells were plated in T-25 flasks for 3-4 days at 37° C. (no selection antibiotic) prior to use and grown to 80% confluence. Cells were washed twice with PBS (calcium and magnesium free) and detached with a 5-minute treatment at 37° C. with 2-3 mls of Accutase®. Cells were collected, and flask was washed in CHO-SFM II media (Life Technologies Gibco), centrifuged for 2 minutes at ˜110×g and resuspended to obtain a single cell suspension of ˜2-3×10^6 cells/ml.
The intracellular solution contained the following (in mM): KCl 50, NaCl 10, KF 60, EGTA 20, HEPES 10, adjusted to pH 7.2 with KOH and an osmolarity of 285 mOsmol. Seal enhancer was purchased from Nanion (80 mM NaCl, 3 mM KCl, 10 mM MgCl2, 35 mM CaCl2), 10 mM HEPES, pH7.4, 298 mOsmol. The external solution contained (in mM): NaCl 140, KCl 4, CaCl2) 2, MgCl2 1, HEPES 10, Glucose 5, adjusted to pH7.4 and an osmolarity of 298 mOsmol.
All compounds were initially tested at 10 uM at a final DMSO concentration of 0.33%. Compounds were dissolved in dimethylsulfoxide (DMSO) at a stock concentration of 30 mM. The compound was further diluted 1:10 to give a stock concentration of 3 mM in DMSO. The final assay solution was diluted 1:300 in External solution to give a final concentration of 10 uM. For the DMSO Control Buffer 30 uL of DMSO was added to 10 mL buffer.
All electrophysiological recordings were performed at ambient temperature (21-23° C.) using automated patch clamp (Patchliner, Nanion Technologies GmbH) in the whole-cell configuration.
Cell membrane potentials were held at −80 mV, and currents were evoked by voltage steps (1000 ms duration) from −60 to +60 mV in 10 mV increments. This was performed first with vehicle (0.33% DMSO) and then with 10 uM compound, after a 3-minute incubation period. Data was taken from 4 cells per assay.
The recordings were analysed and selected using peak current amplitude (>100 pA at the −10 mV voltage step) in the absence of compound to eliminate unsuitable cells from analysis. Peak current amplitude was measured and recorded for each voltage step and data was normalised to the maximum current at +60 mV. The normalised Kv3.x currents following addition of the compound were then compared with the currents recorded prior to compound addition (vehicle control). Positive modulation was determined as % potentiation at the voltage step of −10 mV=[current (cmpd)/current (veh)]*100−100. % potentiation ≥50% was considered acceptable. In addition, voltage shift of the IV curve at V1/2 was measured. V1/2 of ≥−5 mV was also considered acceptable. IV curves were plotted in GraphPad Prism (software version 6.0) and fitted with a Boltzmann equation, where V1/2 is the voltage at half-maximal activation.

Row | SMILES | Kv3.1 Activity at 10 μM Potentiation (%) | Kv3.1 Activity at 10 μM Voltage Shift (mV)
1 | CC[C@@]1(C)NC(=O)N(c2ccnc(Oc3ccc(C)c(F)c3)c2)C1=O [Example 12, (5R)-5-ethyl-3-[2-(3-fluoro-4-methyl-phenoxy)-4-pyridyl]-5-methyl-imidazolidine-2,4-dione] | 6 | −3.31
2 | CC[C@@]1(C)NC(=O)N(c2ccnc(Oc3ccc(Cl)c(OC)c3)c2)C1=O [Example 15, (5R)-5-ethyl-3-[2-(3-methoxy-4-chloro-phenoxy)-4-pyridyl]-5-methyl-imidazolidine-2,4-dione] | 3 | −0.9
3 | CC[C@@]1(C)NC(=O)N(c2ccnc(Oc3ccc(C)c(C)c3)c2)C1=O [Example 17, (5R)-3-[2-(3,4-dimethylphenoxy)-4-pyridyl]-5-ethyl-5-methyl-imidazolidine-2,4-dione] | 28 | −3.12
4 | CC[C@@]1(C)NC(=O)N(c2ccnc(Oc3ccc4c(c3)OCCC4)c2)C1=O [Example 19, (5R)-3-(2-chroman-7-yloxy-4-pyridyl)-5-ethyl-5-methyl-imidazolidine-2,4-dione] | 35 | −0.4
5 | CC[C@H]1NC(=O)N(c2ccnc(Oc3ccc(C)c(OC)c3)c2)C1=O [Example 23, (5R)-5-ethyl-3-[2-(3-methoxy-4-methyl-phenoxy)-4-pyridyl]imidazolidine-2,4-dione] | 30 | 0.77
6 | Cc1ccc(Oc2cc(N3C(=O)NC4(CCCCC4)C3=O)ccn2)cc1OC(F)(F)F [Example 29, 3-[2-[4-methyl-3-(trifluoromethoxy)phenoxy]-4-pyridyl]-1,3-diazaspiro[4.5]decane-2,4-dione] | 12 | −0.63
7 | COc1cc(Oc2cc(N3C(=O)NC4(CCOCC4)C3=O)ccn2)ccc1C [Example 32, 3-[2-(3-methoxy-4-methyl-phenoxy)-4-pyridyl]-8-oxa-1,3-diazaspiro[4.5]decane-2,4-dione] | 19 | −2.06
8 | CC[C@H]1NC(=O)N(c2cncc(Oc3ccc(C)c(OC)c3)c2)C1=O [Example 38, (5R)-5-ethyl-3-[5-(3-methoxy-4-methyl-phenoxy)-3-pyridyl]imidazolidine-2,4-dione] | 48 | −2.8
9 | CC[C@@]1(C)NC(=O)N(c2cncc(Oc3ccc(C)c(OC)c3)c2)C1=O [Example 40, (5R)-5-ethyl-3-[5-(3-methoxy-4-methyl-phenoxy)-3-pyridyl]-5-methyl-imidazolidine-2,4-dione] | 78 | −4.77
10 | CC[C@H]1NC(=O)N(c2cc(Oc3ccc4ccccc4c3)ccn2)C1=O [Example 42, (5R)-5-ethyl-3-[4-(2-naphthyloxy)-2-pyridyl]imidazolidine-2,4-dione] | 25 | −3.07
11 | CC(C)c1cc(Oc2ccnc(N3C(=O)NC(C)(C)C3=O)c2)ccc1C#N [Example 47, 4-[[2-(4,4-dimethyl-2,5-dioxo-imidazolidin-1-yl)-4-pyridyl]oxy]-2-isopropyl-benzonitrile] | 29 | −1.49
12 | CC[C@H]1NC(=O)N(c2cccc(Oc3ccc(OC)c(C)c3)n2)C1=O [Example 51, (5R)-5-ethyl-3-[6-(4-methoxy-3-methyl-phenoxy)-2-pyridyl]imidazolidine-2,4-dione] | 7 | −1.99
13 | CC[C@H]1NC(=O)N(c2cccc(Oc3cc(OC)ccc3C)n2)C1=O [Example 52, (5R)-5-ethyl-3-[6-(5-methoxy-2-methyl-phenoxy)-2-pyridyl]imidazolidine-2,4-dione] | 14 | −3.5
14 | CC[C@H]1NC(=O)N(c2cccc(Oc3cc(C)cc(OC)c3)n2)C1=O [Example 54, (5R)-5-ethyl-3-[6-(5-methoxy-3-methyl-phenoxy)-2-pyridyl]imidazolidine-2,4-dione] | 11 | −1.69
15 | CC[C@H]1NC(=O)N(c2cccc(Oc3cccc(OC)c3)n2)C1=O [Example 55, (5R)-5-ethyl-3-[6-(3-methoxy-phenoxy)-2-pyridyl]imidazolidine-2,4-dione] | 11 | −1.41
16 | CC[C@H]1NC(=O)N(c2cccc(Oc3cccc(C)c3OC)n2)C1=O [Example 56, (5R)-5-ethyl-3-[6-(2-methoxy-3-methyl-phenoxy)-2-pyridyl]imidazolidine-2,4-dione] | 19 | −2.7
17 | CC[C@H]1NC(=O)N(c2cccc(Oc3ccc(C#N)cc3C(C)(C)C)n2)C1=O [Example 57, 3-tert-butyl-4-[[6-[(4R)-4-ethyl-2,5-dioxo-imidazolidin-1-yl]-2-pyridyl]oxy]benzonitrile] | −23 | 2.18
18 | CC[C@@]1(C)NC(=O)N(c2cccc(Oc3ccc(F)c(OC)c3)n2)C1=O [Example 59, (5R)-5-ethyl-3-[6-(4-fluoro-3-methoxy-phenoxy)-2-pyridyl]-5-methyl-imidazolidine-2,4-dione] | 10 | −1.95
19 | CC[C@@]1(C)NC(=O)N(c2cccc(Oc3ccc(F)c(C)c3)n2)C1=O [Example 60, (5R)-5-ethyl-3-[6-(4-fluoro-3-methyl-phenoxy)-2-pyridyl]-5-methyl-imidazolidine-2,4-dione] | 51 | −3.45
20 | CC[C@@]1(C)NC(=O)N(c2cccc(Oc3ccc4c(c3)CCC4)n2)C1=O [Example 61, (5R)-5-ethyl-3-(6-indan-5-yloxy-2-pyridyl)-5-methyl-imidazolidine-2,4-dione] | 46 | −3.55
21 | CC[C@@]1(C)NC(=O)N(c2cccc(Oc3ccc(Cl)c(OC)c3)n2)C1=O [Example 62, (5R)-3-[6-(4-chloro-3-methoxy-phenoxy)-2-pyridyl]-5-ethyl-5-methyl-imidazolidine-2,4-dione] | 57 | −4.05
